Measured values from patent US6407265B2, “Tin polyoxaalkanecarboxylates and compositions containing them” (priority 1998, dated 2002).
Values after ≈ are worked out from the molar mass of the structure shown.

What was measured:
MCF-7 (mammary cancer) = assay type: cell-based, human; conditions: in vitro, MCF-7 mammary cancer cell line
Text: (§1) The ID50 inhibition doses in ng/ml of the tested compounds are given in the table as well as those for some known reference compounds.

[1] = tested on: H226 (non small cell lung cancer); assay type: cell-based, human; conditions: in vitro, H226 non small cell lung cancer cell line
A 498 (renal cancer) = assay type: cell-based, human; conditions: in vitro, A 498 renal cancer cell line
M19 MEL (melanoma) = assay type: cell-based, human; conditions: in vitro, M19 MEL melanoma cell line
IGROV (ovarian cancer) = assay type: cell-based, human; conditions: in vitro, IGROV ovarian cancer cell line
EVSA-T (mammary cancer) = assay type: cell-based, human; conditions: in vitro, EVSA-T mammary cancer cell line
Text: as §1

WiDr (colon carcinoma) = assay type: cell-based, human; conditions: in vitro, WiDr colon carcinoma cell line
[2] = Stability in the presence of water (117Sn NMR); assay type: physicochemical; conditions: CD3CD2OD solution, increasing amounts of D2O added, resonance regularly slightly shifted
Procedure: The stability in the presence of water of four compounds, 6, 8, 9 and 12, was determined.

Row | Molecule | ID50 inhibition dose MCF-7 (MCF-7 (mammary cancer)) | ID50 inhibition dose H226 [1] | ID50 inhibition dose A498 (A 498 (renal cancer)) | ID50 inhibition dose M19 (M19 MEL (melanoma)) | ID50 inhibition dose IGROV (IGROV (ovarian cancer)) | ID50 inhibition dose EVSA-T (EVSA-T (mammary cancer)) | ID50 inhibition dose WiDr (WiDr (colon carcinoma)) | Stability in the presence of water [2]
1 | O=c1[nH]cc(F)c(=O)[nH]1 [5-fluoro-uracil, reference compound] | 0.75 µg/mL (≈ 5.77 µM) | 0.34 µg/mL (≈ 2.61 µM) | 0.143 µg/mL (≈ 1.1 µM) | 0.442 µg/mL (≈ 3.4 µM) | 0.297 µg/mL (≈ 2.28 µM) | 0.475 µg/mL (≈ 3.65 µM) | 0.225 µg/mL (≈ 1.73 µM) | 
2 | O=C([O][Sn]([c]1ccccc1)([c]1ccccc1)[c]1ccccc1)c1ccc2c(c1)OCCOCCOCCOCCOCCO2 [Compound 1, triphenyltin 4,7,10,13,16,19-hexaoxadicyclo[16.4.0]dicosa-1,3 (20),21-triene-1-carboxylate] | 0.015 µg/mL | 0.037 µg/mL | 0.043 µg/mL | 0.016 µg/mL | 0.03 µg/mL | 0.012 µg/mL | 0.013 µg/mL | 
3 | CCC[CH2][Sn]([CH2]CCC)([CH2]CCC)[O]C(=O)c1ccc2c(c1)OCCOCCOCCOCCOCCO2 [Compound 2, tri-n-butyltin 4,7,10,13,16,19-hexaoxadicyclo[16.4.0]dicosa-1,3(20),21-triene-1-carboxylate] | 0.035 µg/mL | 0.1 µg/mL | 0.097 µg/mL | 0.07 µg/mL | 0.03 µg/mL | 0.006 µg/mL | 0.011 µg/mL | 
4 | CCC[CH2][Sn+2][CH2]CCC.O=C([O-])c1ccc2c(c1)OCCOCCOCCOCCOCCO2.O=C([O-])c1ccc2c(c1)OCCOCCOCCOCCOCCO2 [Compound 3] | 0.155 µg/mL | 0.281 µg/mL | 0.282 µg/mL | 0.219 µg/mL | 0.26 µg/mL | 0.128 µg/mL | 0.781 µg/mL | 
5 | O=C([O][Sn]([c]1ccccc1)([c]1ccccc1)[c]1ccccc1)c1ccc2c(c1)OCCOCCOCCOCCO2 [Compound 5, triphenyltin 4,7,10,13,16-pentaoxadicyclo[13.4.0]cosa-1,3 (17),18-triene-1-carboxylate] | <0.003 µg/mL | <0.003 µg/mL | <0.003 µg/mL | <0.003 µg/mL | <0.003 µg/mL | <0.003 µg/mL | <0.003 µg/mL | 
6 | CCC[CH2][Sn]([CH2]CCC)([CH2]CCC)[O]C(=O)c1ccc2c(c1)OCCOCCOCCOCCO2 [Compound 6, tri-n-butyltin 4,7,10,13,16-pentaoxadicyclo[13.4.0]cosa-1,3 (17),18-triene-1-carboxylate] | <0.003 µg/mL | <0.003 µg/mL | <0.003 µg/mL | <0.003 µg/mL | <0.003 µg/mL | <0.003 µg/mL | <0.003 µg/mL | single resonance
7 | CCC[CH2][Sn]([CH2]CCC)([O]C(=O)c1ccc2c(c1)OCCOCCOCCOCCO2)[O]C(=O)c1ccc2c(c1)OCCOCCOCCOCCO2 [Compound 7, di-n-butyltin bis[4,7,10,13,16-pentaoxadicyclo[13.4.0]cosa-1,3(17),18-triene-1-carboxylate]] | 0.273 µg/mL | 0.854 µg/mL | 0.049 µg/mL | 0.286 µg/mL | 0.321 µg/mL | 0.237 µg/mL | 0.332 µg/mL | 
8 | COCCOCC(=O)[O][Sn]([c]1ccccc1)([c]1ccccc1)[c]1ccccc1 [Compound 8, triphenyltin 3,6-diheptanoate] | 0.013 µg/mL | 0.033 µg/mL | 0.032 µg/mL | 0.031 µg/mL | 0.037 µg/mL | 0.012 µg/mL | 0.034 µg/mL | single resonance
9 | CCC[CH2][Sn]([CH2]CCC)([CH2]CCC)[O]C(=O)COCCOC [Compound 9, tri-n-butyltin 3,6-diheptanoate] | 0.032 µg/mL | 0.061 µg/mL | 0.153 µg/mL | 0.09 µg/mL | 0.084 µg/mL | 0.04 µg/mL | 0.082 µg/mL | single resonance
10 | CCC[CH2][Sn]([CH2]CCC)([O]C(=O)COCCOC)[O]C(=O)COCCOC [Compound 10, di-n-butyltin bis(3,6-diheptanoate)] | 0.06 µg/mL | 0.161 µg/mL | 0.134 µg/mL | 0.115 µg/mL | 0.128 µg/mL | 0.062 µg/mL | 0.379 µg/mL | 
11 | N.N.[Cl][Pt][Cl] [cisplatin, reference compound] | 0.699 µg/mL | 3.269 µg/mL | 2.253 µg/mL | 0.558 µg/mL | 0.169 µg/mL | 0.422 µg/mL | 0.967 µg/mL | 
12 | COc1cccc2c1C(=O)c1c(O)c3c(c(O)c1C2=O)C[C@@](O)(C(=O)CO)C[C@@H]3O[C@H]1C[C@H](N)[C@H](O)[C@H](C)O1 [doxorubicin, reference compound] | 0.01 µg/mL (≈ 0.0184 µM) | 0.199 µg/mL (≈ 0.366 µM) | 0.09 µg/mL (≈ 0.166 µM) | 0.016 µg/mL (≈ 0.0294 µM) | 0.06 µg/mL (≈ 0.11 µM) | 0.008 µg/mL (≈ 0.0147 µM) | 0.011 µg/mL (≈ 0.0202 µM) | 
13 | COc1cc([C@@H]2c3cc4c(cc3[C@@H](O[C@@H]3O[C@@H]5CO[C@@H](C)O[C@H]5[C@H](O)[C@H]3O)[C@H]3COC(=O)[C@H]23)OCO4)cc(OC)c1O [etoposide, reference compound] |  | 3.934 µg/mL (≈ 6.68 µM) | 1.314 µg/mL (≈ 2.23 µM) | 0.505 µg/mL (≈ 0.858 µM) | 0.58 µg/mL (≈ 0.985 µM) |  | 0.15 µg/mL (≈ 0.255 µM) | 
14 | CN(Cc1cnc2nc(N)nc(N)c2n1)c1ccc(C(=O)N[C@@H](CCC(=O)O)C(=O)O)cc1 [methotrexate, reference compound] | 0.018 µg/mL (≈ 0.0396 µM) | 2.287 µg/mL (≈ 5.03 µM) | 0.037 µg/mL (≈ 0.0814 µM) | 0.023 µg/mL (≈ 0.0506 µM) | 0.007 µg/mL (≈ 0.0154 µM) | 0.005 µg/mL (≈ 0.011 µM) | <0.003 µg/mL | 
15 | bis[di-n-butyl(3,6,9-trioxadecanoato)tin]oxide [Compound 15] | <0.003 µg/mL | <0.003 µg/mL | <0.003 µg/mL | <0.003 µg/mL | <0.003 µg/mL | <0.003 µg/mL | 0.003 µg/mL | 
16 | bis[di-n-butyl(3,6-dioxaheptanoato)tin]oxide [Compound 11] | <0.003 µg/mL | 0.005 µg/mL | <0.003 µg/mL | <0.003 µg/mL | <0.003 µg/mL | <0.003 µg/mL | 0.006 µg/mL | 
17 | bis{di-n-butyl-[4,7,10,13,16,19-hexaoxadicyclo[16.4.0]dicosa-1,3(20),21-triene-1-carboxylato]tin}oxide [Compound 4] | 0.036 µg/mL | 0.073 µg/mL | 0.126 µg/mL | 0.068 µg/mL | 0.082 µg/mL | 0.046 µg/mL | 0.239 µg/mL | 
18 | di-n-butyltin bis (3,6,9-trioxadecanoate) [Compound 14] | 0.086 µg/mL | 0.28 µg/mL | 0.145 µg/mL | 0.167 µg/mL | 0.178 µg/mL | 0.066 µg/mL | 0.495 µg/mL | 
19 | triphenyltin 3,6,9-trioxadecanoate [Compound 12] | 0.009 µg/mL | 0.025 µg/mL | 0.021 µg/mL | 0.024 µg/mL | 0.033 µg/mL | 0.009 µg/mL | 0.019 µg/mL | single resonance
